# Test results published in ChEMBL document CHEMBL4041516, “SAR study of 5-alkynyl substituted quinazolin-4(3H)-ones as phosphoinositide 3-kinase delta (PI3Kδ) inhibitors” (Eur J Med Chem, 2017).
# Experiments:
# [1] = biological target: T1, Phosphatidylinositol 4,5-bisphosphate 3-kinase catalytic subunit delta isoform (Homo sapiens, UniProt O00329); test: Inhibition of PI3Kdelta (unknown origin) using PIP2 as substrate measured after 30 mins by HTRF assay
# T1 sequence (O00329 whole entry): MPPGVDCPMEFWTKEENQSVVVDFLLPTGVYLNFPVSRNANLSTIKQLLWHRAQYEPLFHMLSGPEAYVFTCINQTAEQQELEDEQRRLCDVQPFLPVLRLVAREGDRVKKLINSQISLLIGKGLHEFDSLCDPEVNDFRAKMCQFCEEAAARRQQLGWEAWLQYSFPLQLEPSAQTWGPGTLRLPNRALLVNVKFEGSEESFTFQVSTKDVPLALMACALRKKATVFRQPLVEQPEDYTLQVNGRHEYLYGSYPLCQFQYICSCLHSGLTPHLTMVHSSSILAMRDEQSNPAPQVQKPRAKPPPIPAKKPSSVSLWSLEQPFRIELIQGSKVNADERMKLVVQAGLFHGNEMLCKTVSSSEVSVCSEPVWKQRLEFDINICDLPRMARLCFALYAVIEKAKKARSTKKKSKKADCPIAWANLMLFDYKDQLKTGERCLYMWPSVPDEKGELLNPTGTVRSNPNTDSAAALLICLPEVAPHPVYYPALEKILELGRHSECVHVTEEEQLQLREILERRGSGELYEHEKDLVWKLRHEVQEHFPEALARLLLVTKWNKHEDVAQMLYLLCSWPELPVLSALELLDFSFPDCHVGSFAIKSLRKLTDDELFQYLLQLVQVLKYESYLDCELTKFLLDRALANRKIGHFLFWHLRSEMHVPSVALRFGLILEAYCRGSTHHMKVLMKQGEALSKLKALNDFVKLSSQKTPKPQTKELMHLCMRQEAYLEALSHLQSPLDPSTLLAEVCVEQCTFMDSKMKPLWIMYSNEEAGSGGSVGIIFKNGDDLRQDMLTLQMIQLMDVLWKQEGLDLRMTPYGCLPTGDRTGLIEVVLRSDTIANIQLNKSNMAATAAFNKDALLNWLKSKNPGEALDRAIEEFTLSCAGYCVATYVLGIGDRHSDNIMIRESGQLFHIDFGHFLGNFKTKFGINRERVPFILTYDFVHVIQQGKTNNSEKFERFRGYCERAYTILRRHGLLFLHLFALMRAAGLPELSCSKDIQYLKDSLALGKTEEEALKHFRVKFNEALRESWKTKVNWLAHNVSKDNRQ
# SU-DHL-6 = test: Antiproliferative activity against human SUDHL6 cells measured after 72 hrs by alamar blue assay; type: functional, cell-based; conditions: SU-DHL-6, 72 h
# KARPAS-422 = test: Antiproliferative activity against human KARPAS422 cells measured after 72 hrs by alamar blue assay; type: functional, cell-based; conditions: KARPAS-422, 72 h
# [2] = Antiproliferative activity against human WSU-DLCL2 cells measured after 72 hrs by alamar blue assay; type: functional, cell-based; conditions: WSUDLCL2, 72 h
# HT = test: Antiproliferative activity against human HT cells measured after 72 hrs by alamar blue assay; type: functional, cell-based
# Pfeiffer = test: Antiproliferative activity against human Pfeiffer cells measured after 72 hrs by alamar blue assay; type: functional, cell-based
# NAMALVA = test: Antiproliferative activity against human NAMALWA cells measured after 72 hrs by alamar blue assay; type: functional, cell-based
# SU-DHL-1 = test: Antiproliferative activity against human SU-DHL1 cells measured after 72 hrs by alamar blue assay; type: functional, cell-based; conditions: SU-DHL-1, 72 h
# SU-DHL10 = test: Antiproliferative activity against human SU-DHL10 cells measured after 72 hrs by alamar blue assay; type: functional, cell-based; conditions: SU-DHL10, 72 h
# MOLT-4 = test: Antiproliferative activity against human MOLT4 cells measured after 72 hrs by alamar blue assay; type: functional, cell-based; conditions: MOLT-4, 72 h
# [3] = biological target: Phosphatidylinositol 4,5-bisphosphate 3-kinase catalytic subunit gamma isoform (Homo sapiens, UniProt P48736); test: Inhibition of PI3Kgamma (unknown origin) using PIP2 as substrate measured after 30 mins by HTRF assay
# Sequence of Phosphatidylinositol 4,5-bisphosphate 3-kinase catalytic subunit gamma isoform (P48736 whole entry, canonical isoform): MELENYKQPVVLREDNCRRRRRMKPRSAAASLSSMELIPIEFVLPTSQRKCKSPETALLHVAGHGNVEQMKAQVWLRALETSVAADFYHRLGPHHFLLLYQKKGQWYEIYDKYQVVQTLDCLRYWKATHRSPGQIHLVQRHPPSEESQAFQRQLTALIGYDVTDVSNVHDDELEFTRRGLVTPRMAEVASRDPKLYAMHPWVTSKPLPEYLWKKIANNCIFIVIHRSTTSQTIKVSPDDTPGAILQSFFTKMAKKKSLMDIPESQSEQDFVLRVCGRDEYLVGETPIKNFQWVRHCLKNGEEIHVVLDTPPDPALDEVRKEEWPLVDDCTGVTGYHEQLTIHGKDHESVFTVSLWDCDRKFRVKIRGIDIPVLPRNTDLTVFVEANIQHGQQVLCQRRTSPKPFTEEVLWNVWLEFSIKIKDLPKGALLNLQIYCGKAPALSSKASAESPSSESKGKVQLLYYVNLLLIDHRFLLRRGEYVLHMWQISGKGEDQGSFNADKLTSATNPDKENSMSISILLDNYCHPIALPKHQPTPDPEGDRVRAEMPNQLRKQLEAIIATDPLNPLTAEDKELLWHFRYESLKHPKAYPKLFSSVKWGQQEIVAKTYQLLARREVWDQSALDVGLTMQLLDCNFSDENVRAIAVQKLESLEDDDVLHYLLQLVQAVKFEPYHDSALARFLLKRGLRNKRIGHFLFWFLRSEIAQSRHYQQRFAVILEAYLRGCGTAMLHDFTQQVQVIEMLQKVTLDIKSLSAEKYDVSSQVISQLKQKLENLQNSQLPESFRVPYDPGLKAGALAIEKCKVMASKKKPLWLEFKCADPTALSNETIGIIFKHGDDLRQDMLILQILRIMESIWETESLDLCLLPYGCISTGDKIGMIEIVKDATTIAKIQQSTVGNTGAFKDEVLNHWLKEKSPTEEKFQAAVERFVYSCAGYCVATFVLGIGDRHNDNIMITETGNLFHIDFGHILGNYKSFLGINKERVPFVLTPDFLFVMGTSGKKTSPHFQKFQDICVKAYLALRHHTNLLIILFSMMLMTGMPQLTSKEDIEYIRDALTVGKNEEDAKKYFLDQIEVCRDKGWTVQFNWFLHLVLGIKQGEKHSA
# [4] = biological target: Phosphatidylinositol 4,5-bisphosphate 3-kinase catalytic subunit alpha isoform (Homo sapiens, UniProt P42336); test: Inhibition of PI3Kalpha (unknown origin) using PIP2 as substrate measured after 30 mins by HTRF assay
# Sequence of Phosphatidylinositol 4,5-bisphosphate 3-kinase catalytic subunit alpha isoform (P42336 whole entry, canonical isoform): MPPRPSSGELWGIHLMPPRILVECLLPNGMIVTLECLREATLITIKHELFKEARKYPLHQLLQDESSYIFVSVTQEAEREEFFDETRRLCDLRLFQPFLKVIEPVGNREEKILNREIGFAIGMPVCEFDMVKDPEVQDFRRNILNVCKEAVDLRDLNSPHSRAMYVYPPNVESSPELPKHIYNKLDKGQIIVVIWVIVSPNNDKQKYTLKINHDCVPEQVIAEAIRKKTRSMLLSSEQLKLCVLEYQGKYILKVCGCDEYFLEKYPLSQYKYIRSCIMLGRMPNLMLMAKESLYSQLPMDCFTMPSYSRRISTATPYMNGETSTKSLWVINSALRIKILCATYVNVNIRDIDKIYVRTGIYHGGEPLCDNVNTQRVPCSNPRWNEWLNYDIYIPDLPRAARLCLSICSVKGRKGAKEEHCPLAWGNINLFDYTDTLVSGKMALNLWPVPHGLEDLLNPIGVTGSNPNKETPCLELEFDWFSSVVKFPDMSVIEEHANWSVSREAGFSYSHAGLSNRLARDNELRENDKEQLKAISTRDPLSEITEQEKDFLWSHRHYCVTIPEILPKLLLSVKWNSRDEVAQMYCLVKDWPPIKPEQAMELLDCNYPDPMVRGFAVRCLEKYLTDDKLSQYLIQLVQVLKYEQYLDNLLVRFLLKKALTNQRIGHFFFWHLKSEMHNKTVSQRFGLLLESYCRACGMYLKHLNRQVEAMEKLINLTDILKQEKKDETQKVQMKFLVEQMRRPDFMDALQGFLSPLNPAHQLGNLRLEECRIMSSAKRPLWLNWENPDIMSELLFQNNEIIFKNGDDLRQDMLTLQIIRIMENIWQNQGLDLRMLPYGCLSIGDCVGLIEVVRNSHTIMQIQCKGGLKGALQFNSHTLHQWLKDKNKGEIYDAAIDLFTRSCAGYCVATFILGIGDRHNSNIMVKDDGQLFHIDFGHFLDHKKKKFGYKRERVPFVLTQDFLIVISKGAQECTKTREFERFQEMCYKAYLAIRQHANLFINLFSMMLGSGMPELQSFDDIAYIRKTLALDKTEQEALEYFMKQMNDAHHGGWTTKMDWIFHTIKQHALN
# [5] = biological target: Phosphatidylinositol 4,5-bisphosphate 3-kinase catalytic subunit beta isoform (Homo sapiens, UniProt P42338); test: Inhibition of PI3Kbeta (unknown origin) using PIP2 as substrate measured after 30 mins by HTRF assay
# Sequence of Phosphatidylinositol 4,5-bisphosphate 3-kinase catalytic subunit beta isoform (P42338 whole entry, canonical isoform): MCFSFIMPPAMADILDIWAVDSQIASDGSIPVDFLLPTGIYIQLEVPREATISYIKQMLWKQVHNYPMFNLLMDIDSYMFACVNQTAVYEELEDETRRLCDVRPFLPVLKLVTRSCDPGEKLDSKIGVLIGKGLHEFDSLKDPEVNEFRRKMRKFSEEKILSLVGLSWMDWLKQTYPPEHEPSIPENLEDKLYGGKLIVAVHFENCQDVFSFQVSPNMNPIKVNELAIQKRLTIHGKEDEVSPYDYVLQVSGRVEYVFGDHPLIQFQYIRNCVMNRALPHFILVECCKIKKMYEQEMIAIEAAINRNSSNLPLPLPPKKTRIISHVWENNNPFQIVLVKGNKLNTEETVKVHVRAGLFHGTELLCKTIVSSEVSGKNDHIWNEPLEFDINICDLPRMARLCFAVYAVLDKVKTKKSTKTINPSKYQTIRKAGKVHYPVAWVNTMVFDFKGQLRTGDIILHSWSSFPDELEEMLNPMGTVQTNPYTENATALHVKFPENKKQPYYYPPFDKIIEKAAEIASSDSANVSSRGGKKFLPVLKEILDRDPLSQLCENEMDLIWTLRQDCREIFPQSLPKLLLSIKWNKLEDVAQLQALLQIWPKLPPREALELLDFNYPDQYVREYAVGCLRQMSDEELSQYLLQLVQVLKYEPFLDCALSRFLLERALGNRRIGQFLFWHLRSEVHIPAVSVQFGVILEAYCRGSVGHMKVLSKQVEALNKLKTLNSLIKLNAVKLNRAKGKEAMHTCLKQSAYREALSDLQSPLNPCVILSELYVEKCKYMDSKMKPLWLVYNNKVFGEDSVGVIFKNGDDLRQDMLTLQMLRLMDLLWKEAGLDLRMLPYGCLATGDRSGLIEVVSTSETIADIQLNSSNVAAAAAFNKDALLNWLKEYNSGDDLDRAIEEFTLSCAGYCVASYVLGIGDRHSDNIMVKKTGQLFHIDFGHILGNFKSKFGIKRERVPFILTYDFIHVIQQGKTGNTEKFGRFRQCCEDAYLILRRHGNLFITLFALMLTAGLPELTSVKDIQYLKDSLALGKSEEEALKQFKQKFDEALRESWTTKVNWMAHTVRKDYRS
# SUD4 = test: Antiproliferative activity against human SU-DHL4 cells measured after 72 hrs by alamar blue assay; type: functional, cell-based; conditions: SU-DHL-4, 72 h
# [6] = biological target: T2, Voltage-gated inwardly rectifying potassium channel KCNH2 (Homo sapiens, UniProt Q12809); test: Inhibition of human ERG
# T2 sequence (Q12809 whole entry): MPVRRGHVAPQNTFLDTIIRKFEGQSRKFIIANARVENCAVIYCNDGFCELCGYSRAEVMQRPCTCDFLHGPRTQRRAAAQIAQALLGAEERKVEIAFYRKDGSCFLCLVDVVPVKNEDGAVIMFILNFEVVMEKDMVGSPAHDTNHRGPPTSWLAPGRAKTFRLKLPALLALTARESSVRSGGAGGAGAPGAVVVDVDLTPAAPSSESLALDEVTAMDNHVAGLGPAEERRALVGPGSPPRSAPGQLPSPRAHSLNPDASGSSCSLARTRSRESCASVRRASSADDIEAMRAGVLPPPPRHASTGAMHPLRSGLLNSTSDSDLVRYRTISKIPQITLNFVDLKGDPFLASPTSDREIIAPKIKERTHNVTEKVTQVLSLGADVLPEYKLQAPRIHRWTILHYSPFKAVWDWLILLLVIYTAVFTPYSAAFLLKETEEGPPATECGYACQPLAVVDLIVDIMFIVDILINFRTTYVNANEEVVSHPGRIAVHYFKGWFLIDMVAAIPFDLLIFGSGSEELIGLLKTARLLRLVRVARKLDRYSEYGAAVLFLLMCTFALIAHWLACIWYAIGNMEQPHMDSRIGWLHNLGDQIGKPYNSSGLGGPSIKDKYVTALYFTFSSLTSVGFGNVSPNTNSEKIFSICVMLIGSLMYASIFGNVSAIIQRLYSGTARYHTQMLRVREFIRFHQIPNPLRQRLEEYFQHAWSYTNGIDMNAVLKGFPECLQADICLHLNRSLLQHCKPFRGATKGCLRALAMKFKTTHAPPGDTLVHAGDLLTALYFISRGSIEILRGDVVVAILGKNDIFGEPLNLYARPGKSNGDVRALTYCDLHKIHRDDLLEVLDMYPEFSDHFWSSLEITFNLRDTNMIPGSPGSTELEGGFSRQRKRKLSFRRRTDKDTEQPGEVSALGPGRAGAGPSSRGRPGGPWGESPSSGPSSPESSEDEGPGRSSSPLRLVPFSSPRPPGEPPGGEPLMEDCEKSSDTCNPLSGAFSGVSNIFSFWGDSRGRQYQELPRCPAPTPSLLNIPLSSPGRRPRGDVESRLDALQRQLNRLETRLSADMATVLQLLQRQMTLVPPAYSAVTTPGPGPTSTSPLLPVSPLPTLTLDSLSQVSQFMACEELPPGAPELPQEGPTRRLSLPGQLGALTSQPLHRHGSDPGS
# hERG (KCNH2) = hERG (KCNH2) (Homo sapiens, UniProt Q12809); test: (§1) Inhibition of human ERG at 40 uM relative to control
# [7] = biological target: T2, Voltage-gated inwardly rectifying potassium channel KCNH2; test: as §1; conditions: 40 µM
SMILES,IC50 [1],IC50 (SU-DHL-6),other results
Nc1nc(N)nc(N2CCC[C@H]2c2nc3cccc(C#CCCCC(=O)N4CCOCC4)c3c(=O)n2-c2ccccc2)n1,> 300 nM,> 10000 nM,–
N#Cc1c(N)ncnc1N1CCC[C@H]1c1nc2cccc(C#CCN3CCC(C4CC(F)C4)CC3)c2c(=O)n1-c1ccccc1 (some centres not stated),78.1 nM,526 nM,–
N#Cc1c(N)ncnc1N1CCC[C@H]1c1nc2cccc(C#CCN3CCC(C4CC(F)(F)C4)CC3)c2c(=O)n1-c1ccccc1,141 nM,724 nM,–
CC(C)(C)N1CCN(CC#Cc2cccc3nc([C@@H]4CCCN4c4ncnc(N)c4C#N)n(-c4ccccc4)c(=O)c23)CC1,43 nM,282 nM,–
CC(C)(C)N1CCN(C(=O)C#Cc2cccc3nc([C@@H]4CCCN4c4ncnc(N)c4C#N)n(-c4ccccc4)c(=O)c23)CC1,97.7 nM,216 nM,–
N#Cc1c(N)ncnc1N1CCC[C@H]1c1nc2cccc(C#CCN3CCN(CC4CC4)CC3)c2c(=O)n1-c1ccccc1,107 nM,705 nM,–
Cc1nc(N)nc(N2CC[C@H]2c2nc3cccc(C#CCCCC(=O)N4CCCC4)c3c(=O)n2-c2ccccc2)c1C#N,19.6 nM,862 nM,–
CC(F)CN1CCN(CC#Cc2cccc3nc([C@@H]4CCCN4c4ncnc(N)c4C#N)n(-c4ccccc4)c(=O)c23)CC1 (some centres not stated),80.2 nM,1410 nM,–
C=CC(O)C(C)(C)N1CCN(CC#Cc2cccc3nc([C@@H]4CCCN4c4ncnc(N)c4C#N)n(-c4ccccc4)c(=O)c23)CC1 (some centres not stated),60.2 nM,372 nM,–
CC[C@H](Nc1ncnc2[nH]cnc12)c1nc2cccc(F)c2c(=O)n1-c1ccccc1 [IDELALISIB],–,118 nM,IC50 (KARPAS-422): 8100 nM; IC50 [2]: > 10000 nM; IC50 (HT): > 10000 nM; IC50 (Pfeiffer): 6800 nM; IC50 (NAMALVA): > 10000 nM; IC50 (SU-DHL-1): > 10000 nM; IC50 (SU-DHL10): > 10000 nM; IC50 (MOLT-4): > 10000 nM
CCOC(=O)c1cnc(C#Cc2cccc3nc([C@@H]4CCCN4c4ncnc(N)c4C#N)n(-c4ccccc4)c(=O)c23)s1,> 300 nM,> 10000 nM,–
CC[C@H](Nc1ncnc(N)c1C#N)c1nc2cccc(C#CCCCC(=O)N3CCOCC3)c2c(=O)n1-c1ccccc1,96.8 nM,1430 nM,–
CC[C@H](Nc1nc(N)nc(N)c1C#N)c1nc2cccc(C#CCCCO)c2c(=O)n1-c1ccccc1,12.2 nM,26.8 nM,–
CC(C)(CO)N1CCN(CC#Cc2cccc3nc([C@@H]4CCCN4c4ncnc(N)c4C#N)n(-c4ccccc4)c(=O)c23)CC1,67.1 nM,339 nM,–
N#Cc1c(N)ncnc1N1CCC[C@H]1c1nc2cccc(C#Cc3cccnc3)c2c(=O)n1-c1ccccc1,> 300 nM,1730 nM,–
N#Cc1c(N)ncnc1N1CCC[C@H]1c1nc2cccc(C#Cc3cccs3)c2c(=O)n1-c1ccccc1,41.5 nM,1680 nM,–
Cc1nc(N)nc(N2CCC[C@H]2c2nc3cccc(C#CCCCC(=O)N4CCOCC4)c3c(=O)n2-c2ccccc2)c1C#N,11.8 nM,178 nM,–

SMILES,IC50 [1],IC50 (SU-DHL-6),other results
CC(COC(F)F)N1CCN(CC#Cc2cccc3nc([C@@H]4CCCN4c4ncnc(N)c4C#N)n(-c4ccccc4)c(=O)c23)CC1 (some centres not stated),188 nM,2000 nM,–
CC[C@H](Nc1ncnc(N)c1C#N)c1nc2cccc(C#CCCCC(=O)N3CCCC3)c2c(=O)n1-c1ccccc1,112 nM,1900 nM,–
N#Cc1c(N)ncnc1N1CCC[C@H]1c1nc2cccc(C#CCN3CCOCC3)c2c(=O)n1-c1ccccc1,107 nM,1160 nM,–
CC(C)(F)CN1CCN(CC#Cc2cccc3nc([C@@H]4CCCN4c4ncnc(N)c4C#N)n(-c4ccccc4)c(=O)c23)CC1,170 nM,2820 nM,–
CC(C)N1CCN(Cc2cnc(C#Cc3cccc4nc([C@@H]5CCCN5c5ncnc(N)c5C#N)n(-c5ccccc5)c(=O)c34)s2)CC1,> 300 nM,1150 nM,–
CC[C@H](Nc1nc(N)nc(N)c1C#N)c1nc2cccc(C#CCCCC(=O)N3CCCC3)c2c(=O)n1-c1ccccc1,6.73 nM,37.2 nM,IC50 [3]: 125 nM; IC50 [4]: 624 nM; IC50 [5]: 530 nM; IC50 (KARPAS-422): 2100 nM; IC50 [2]: 6800 nM; IC50 (HT): 7900 nM; IC50 (Pfeiffer): 2200 nM; IC50 (NAMALVA): 6200 nM; IC50 (SU-DHL-1): 4900 nM; IC50 (SUD4): 1700 nM; IC50 (SU-DHL10): 1800 nM; IC50 (MOLT-4): 6700 nM; IC50 ([6]; read-out: IC50): > 40000 nM; inhibition at 40 µM (hERG (KCNH2)): 39.3%
N#Cc1c(N)ncnc1N1CCC[C@H]1c1nc2cccc(C#Cc3ccccn3)c2c(=O)n1-c1ccccc1,> 300 nM,1900 nM,–
N#Cc1c(N)ncnc1N1CC[C@H]1c1nc2cccc(C#CCCCC(=O)N3CCCC3)c2c(=O)n1-c1ccccc1,440 nM,7840 nM,–
Cc1nc(N)nc(N2CCC[C@H]2c2nc3cccc(C#CCCCC(=O)N4CCCC4)c3c(=O)n2-c2ccccc2)c1C#N,7.1 nM,58.9 nM,IC50 [3]: 132 nM; IC50 [4]: 1480 nM; IC50 [5]: 2020 nM; IC50 (KARPAS-422): 4300 nM; IC50 [2]: > 10000 nM; IC50 (HT): > 10000 nM; IC50 (Pfeiffer): 4400 nM; IC50 (NAMALVA): 5900 nM; IC50 (SU-DHL-1): > 10000 nM; IC50 (SUD4): 4000 nM; IC50 (SU-DHL10): 4500 nM; IC50 (MOLT-4): 6700 nM; IC50 [6]: Nd(Insoluble); inhibition (INH) [7]: Nd(Insoluble)
N#Cc1c(N)ncnc1N1CCC[C@H]1c1nc2cccc(C#CC(=O)N3CCOCC3)c2c(=O)n1-c1ccccc1,70 nM,1120 nM,–
N#Cc1c(N)ncnc1N1CCC[C@H]1c1nc2cccc(C#CCN3C[C@@H]4C[C@H]3CN4)c2c(=O)n1-c1ccccc1,135 nM,1260 nM,–
CC[C@H](Nc1ncnc2[nH]cnc12)c1nc2cccc(C#CCCCC(=O)N3CCOCC3)c2c(=O)n1-c1ccccc1,110 nM,1180 nM,–
N#Cc1c(N)ncnc1N1CCC[C@H]1c1nc2cccc(C#CCCCC(=O)N3CCOCC3)c2c(=O)n1-c1ccccc1,13.8 nM,27.6 nM,IC50 [3]: 291 nM; IC50 [4]: 3110 nM; IC50 [5]: 1650 nM; IC50 (KARPAS-422): 11600 nM; IC50 [2]: > 10000 nM; IC50 (HT): > 10000 nM; IC50 (Pfeiffer): 7200 nM; IC50 (NAMALVA): 6000 nM; IC50 (SU-DHL-1): > 10000 nM; IC50 (SUD4): 3900 nM; IC50 (SU-DHL10): 2400 nM; IC50 (MOLT-4): > 10000 nM; IC50 ([6]; read-out: IC50): 31700 nM; inhibition at 40 µM (hERG (KCNH2)): 61.9%
N#Cc1c(N)ncnc1N1CC[C@H]1c1nc2cccc(C#CCCCC(=O)N3CCOCC3)c2c(=O)n1-c1ccccc1,620 nM,7320 nM,–
Cc1nc(N)nc(N2CC[C@H]2c2nc3cccc(C#CCCCC(=O)N4CCOCC4)c3c(=O)n2-c2ccccc2)c1C#N,16.8 nM,640 nM,–
N#Cc1c(N)ncnc1N1CCC[C@H]1c1nc2cccc(C#Cc3cccc(F)c3)c2c(=O)n1-c1ccccc1,> 300 nM,3860 nM,–
N#Cc1c(N)ncnc1N1CCC[C@H]1c1nc2cccc(C#CCCCC(=O)N3CCCC3)c2c(=O)n1-c1ccccc1,11.5 nM,99 nM,–
